# Assay results: US20220105093A1, “PHARMACEUTICAL COMPOSITIONS AND COMBINATIONS COMPRISING INHIBITORS OF THE ANDROGEN RECEPTOR AND USES THEREOF” (ESSA Pharma, Inc., priority 2020, published 2022)
# How the values were obtained:
# [1] = In vivo pharmacokinetics in plasma after oral gavage; settings: mouse, male CD-1 mice
# Description: The purpose of this study is to determine the pharmacokinetics of the tested compounds in plasma, following oral gavage administration (PO) to male CD-1 mice.
# Animal Husbandry: Animals were group housed during acclimation and the study. The animal room environment were controlled (target conditions: temperature 18 to 26° C., relative humidity 30 to 70%, 12 hours artificial light and 12 hours dark). Temperature and relative humidity were monitored daily. Animals were fasted at least 12 hours prior to the administration. All animals had access to Certified Rodent Diet ad libitum 4 hours post dosing.
# Dose Formulation: prepared 85-100 μL of a stock solution of representative compounds of the disclosure in DMSO at 50 mM; 1.5% v/v of Tween 80 were added and mixed gently; 95.5% v/v saline was added gently to the organic phase. The solution was mixed slowly by reverse pipetting to get a clear solution.
# Dose Administration: the dose formulations were administered via oral gavage per facility SOPs. The dose volume were determined by the animals' body weight collected on the morning of dosing day
# Sample Collection: blood collection (about 0.05 mL per time point) was performed from saphenous vein of each animal into polypropylene tubes at each timepoints (0, 0.25, 0.5, 1, 2, 4, 8, 12, and 24 hr). All blood samples were transferred into pre-chilled tubes containing 2 μL of K2-EDTA (0.5M) and placed on wet ice until centrifugation. Each collected blood sample was in the wet-ice before centrifugation. Each collected blood was under centrifugation for 15 minutes at 4° C. and 3000 g for plasma collection. Plasma samples were stored in polypropylene tubes, quickly frozen over dry ice and kept at −70±10° C. until LC/MS/MS analysis.
# Bioanalytical analysis: A LC-MS/MS method for the quantitative determination of tested compound in biological matrix were developed under non-GLP compliance. A calibration curve with at least 7 non-zero calibration standards were applied for the method including LLOQ.
# Plasma concentration versus time data were analyzed by non-compartmental approaches using the Phoenix WinNonlin 6.3 software program. Cl, Vdss, C0, Cmax, Tmax, T½, AUC(0-t), AUC(0-inf), MRT(0-t), MRT(0-inf), % F (oral availability) and graphs of plasma concentration versus time profile were reported.
# [2] = tested on: androgen responsive genes in VCaP cells; assay: mRNA expression of androgen responsive genes in VCaP cells (RNAseq); format: cell-based
# Description: Relative mRNA expression in VCaP was measured to assess response of Compound A, enzalutamide (Enza), apalutamide (Apa), or darolutamide (Daro) alone or Compound A in combination with Enza, Apa, or Daro, in androgen responsive genes.
# [3] = tested on: androgen responsive genes in LNCaP cells; assay: mRNA expression of androgen responsive genes in LNCaP cells (NanoString AR/Prostate Cancer gene panel)
# [4] = Compound A in plasma, single PO dose 60.00 mg/kg, single agent or with enzalutamide
# [5] = enzalutamide in plasma, single PO dose 15.0 mg/kg, single agent or with Compound A
compound,measurement,setting,value
"CC(C)(c1ccc(OCc2ccnc(NS(C)(=O)=O)n2)cc1)c1cc(Cl)c(OCCCl)c(C#N)c1 [Compound A, N-(4-((4-(2-(3-chloro-4-(2-chloroethoxy)-5-cyanophenyl)propan-2-yl)phenoxy)methyl)pyrimidin-2-yl)methanesulfonamide]",AUC(0-t),[1]; [4],483 µg·h/mL
same,Cmax,[1]; [4],41700 ng/mL
same,Tmax,[1]; [4],4 h
same,half-life,"[1]; Compound A in plasma, single PO dose 60.00 mg/kg, single agent or with enzalutamide, read-out: T½ (converted)",324 min
same,inhibition of canonical AR dependent genes,"[2]; Compound A at 10 μM in combination with the 'lutamides (FIGS. 11A, 11B)",superior inhibition of responsive genes
same,synergy on androgen responsive gene expression,"[2]; Compound A at 10 μM with Enza, Apa or Daro, R1881 stimulation (FIG. 10)","can synergize with Enza, Apa, and Daro"
same,"Relative mRNA expression of androgen response genes FKBP5, TMPRSS2, KLK2, KLK3, and NKX3.1",[3]; LNCaP cells (FIG. 6A),dose-dependent response
same,Log2Fold Change ERRFl1,"[3]; LNCaP, 7.5 μM",−2.76
same,Log2Fold Change SNAl2,"[3]; LNCaP, 7.5 μM",−1.79
"CNC(=O)c1ccc(N2C(=S)N(c3ccc(C#N)c(C(F)(F)F)c3)C(=O)C2(C)C)cc1F [Enzalutamide, enzalutamide, reference compound]",AUC(0-t),[1]; [5],388 µg·h/mL
same,Cmax,[1]; [5],21100 ng/mL
same,Tmax,[1]; [5],9 h
same,Log2Fold Change CDC6,"[3]; LNCaP, 7.5 μM",−1.20
same,Log2Fold Change ERRFl1,"[3]; LNCaP, 7.5 μM",−4.51
same,Log2Fold Change SNAl2,"[3]; LNCaP, 7.5 μM",−3.97
